Assay results taken from ChEMBL document CHEMBL3885881, “DrugMatrix”.

Organism: Rattus norvegicus
Test: DrugMatrix - Regimen: Daily Repeat
Assay type: toxicity, organism-based, Sprague-Dawley
Design: regimen Daily Repeat, gender Male, age 6-8 weeks
Conditions: in vivo, iv, vehicle 100 % SALINE; for ABSOLUTE BASOPHIL / ABSOLUTE EOSINOPHIL / ABSOLUTE LYMPHOCYTE / ABSOLUTE MONOCYTE / ABSOLUTE SEGMENTED NEUTROPHIL / BASOPHIL / EOSINOPHIL / ERYTHROCYTE COUNT / HEMATOCRIT / HEMOGLOBIN / LEUKOCYTE COUNT / LYMPHOCYTE / MEAN CORPUSCULAR HEMOGLOBIN / MEAN CORPUSCULAR HEMOGLOBIN CONCENTRATION / MEAN CORPUSCULAR VOLUME / MONOCYTE / NEUTROPHIL / NUCLEATED RED BLOOD CELLS / PLATELET COUNT: tissue Blood; for ALANINE AMINOTRANSFERASE / ALBUMIN / ALKALINE PHOSPHATASE / ASPARTATE AMINOTRANSFERASE / BLOOD UREA NITROGEN / CARBON DIOXIDE / CHOLESTEROL / CREATINE PHOSPHOKINASE / CREATININE / GLUCOSE / LACTATE DEHYDROGENASE / LIPASE / PHOSPHORUS / POTASSIUM / SODIUM / TOTAL BILIRUBIN / TOTAL PROTEIN / URIC ACID: tissue Plasma
[1] = 18 mg/kg, 120 h, dose level High, time 5 day
[2] = […], 72 h, dose 7.5 mg/Kg, dose level Low, time 3 day
[3] = […], 120 h, dose 7.5 mg/Kg, dose level Low, time 5 day

SMILES: N=C(N)c1ccc(OCCCCCOc2ccc(C(=N)N)cc2)cc1 [PENTAMIDINE]
- ABSOLUTE BASOPHIL [1]: 0 CELLS/uL
- ABSOLUTE EOSINOPHIL [1]: 0 CELLS/uL
- ABSOLUTE LYMPHOCYTE [1]: 15017 CELLS/uL
- ABSOLUTE MONOCYTE [1]: 444.33 CELLS/uL
- ABSOLUTE SEGMENTED NEUTROPHIL [1]: 972 CELLS/uL
- BASOPHIL [1]: 0%
- EOSINOPHIL [1]: 0%
- ERYTHROCYTE COUNT [1]: 6.15 x10E6/uL
- HEMATOCRIT [1]: 37.9%
- HEMOGLOBIN [1]: 14.2 G/DL
- LEUKOCYTE COUNT [1]: 16.43 x10E3/uL
- LYMPHOCYTE [1]: 91.33%
- MEAN CORPUSCULAR HEMOGLOBIN [1]: 23.07 pg
- MEAN CORPUSCULAR HEMOGLOBIN CONCENTRATION [1]: 37.5 G/DL
- MEAN CORPUSCULAR VOLUME [1]: 61.53 fL
- MONOCYTE [1]: 2.67%
- NEUTROPHIL [1]: 6%
- NUCLEATED RED BLOOD CELLS [1]: 0 /100WBC
- PLATELET COUNT [1]: 1455 x10E3/uL
- ALANINE AMINOTRANSFERASE [1]: 44.33 u/L
- ALBUMIN [1]: 4.3 G/DL
- ALKALINE PHOSPHATASE [1]: 288.33 u/L
- ASPARTATE AMINOTRANSFERASE [1]: 71 u/L
- BLOOD UREA NITROGEN [1]: 13.67 mg/dL
- CARBON DIOXIDE [1]: 26.67 mmol/L
- CHOLESTEROL [1]: 57 mg/dL
- CREATINE PHOSPHOKINASE [1]: 246.67 u/L
- CREATININE [1]: 0.22 mg/dL
- GLUCOSE [1]: 166.33 mg/dL
- LACTATE DEHYDROGENASE [1]: 175 u/L
- LIPASE [1]: 8.67 u/L
- PHOSPHORUS [1]: 11.6 mg/dL
- POTASSIUM [1]: 5.78 MEQ/L
- SODIUM [1]: 146.7 MEQ/L
- TOTAL BILIRUBIN [1]: 0.2 mg/dL
- TOTAL PROTEIN [1]: 6.13 G/DL
- URIC ACID [1]: 1.93 mg/dL
- ABSOLUTE BASOPHIL [2]: 0 CELLS/uL
- ABSOLUTE EOSINOPHIL [2]: 0 CELLS/uL
- ABSOLUTE LYMPHOCYTE [2]: 12540 CELLS/uL
- ABSOLUTE MONOCYTE [2]: 234 CELLS/uL
- ABSOLUTE SEGMENTED NEUTROPHIL [2]: 1759.33 CELLS/uL
- BASOPHIL [2]: 0%
- EOSINOPHIL [2]: 0%
- ERYTHROCYTE COUNT [2]: 5.88 x10E6/uL
- HEMATOCRIT [2]: 37.37%
- HEMOGLOBIN [2]: 14.03 G/DL
- LEUKOCYTE COUNT [2]: 14.53 x10E3/uL
- LYMPHOCYTE [2]: 86.67%
- MEAN CORPUSCULAR HEMOGLOBIN [2]: 23.9 pg
- MEAN CORPUSCULAR HEMOGLOBIN CONCENTRATION [2]: 37.53 G/DL
- MEAN CORPUSCULAR VOLUME [2]: 63.63 fL
- MONOCYTE [2]: 1.67%
- NEUTROPHIL [2]: 11.67%
- NUCLEATED RED BLOOD CELLS [2]: 0 /100WBC
- PLATELET COUNT [2]: 1241.67 x10E3/uL
- ALANINE AMINOTRANSFERASE [2]: 54.33 u/L
- ALBUMIN [2]: 4.63 G/DL
- ALKALINE PHOSPHATASE [2]: 393 u/L
- ASPARTATE AMINOTRANSFERASE [2]: 80.67 u/L
- BLOOD UREA NITROGEN [2]: 15.33 mg/dL
- CARBON DIOXIDE [2]: 24.67 mmol/L
- CHOLESTEROL [2]: 69.67 mg/dL
- CREATINE PHOSPHOKINASE [2]: 265 u/L
- CREATININE [2]: 0.17 mg/dL
- GLUCOSE [2]: 136.67 mg/dL
- LACTATE DEHYDROGENASE [2]: 184 u/L
- LIPASE [2]: 9 u/L
- PHOSPHORUS [2]: 10.97 mg/dL
- POTASSIUM [2]: 6.64 MEQ/L
- SODIUM [2]: 143.8 MEQ/L
- TOTAL BILIRUBIN [2]: 0.23 mg/dL
- TOTAL PROTEIN [2]: 5.83 G/DL
- URIC ACID [2]: 1.97 mg/dL
- ABSOLUTE BASOPHIL [3]: 0 CELLS/uL
- ABSOLUTE EOSINOPHIL [3]: 183 CELLS/uL
- ABSOLUTE LYMPHOCYTE [3]: 14369.67 CELLS/uL
- ABSOLUTE MONOCYTE [3]: 485 CELLS/uL
- ABSOLUTE SEGMENTED NEUTROPHIL [3]: 1795.67 CELLS/uL
- BASOPHIL [3]: 0%
- EOSINOPHIL [3]: 1%
- ERYTHROCYTE COUNT [3]: 5.98 x10E6/uL
- HEMATOCRIT [3]: 38.47%
- HEMOGLOBIN [3]: 14.17 G/DL
- LEUKOCYTE COUNT [3]: 16.83 x10E3/uL
- LYMPHOCYTE [3]: 85%
- MEAN CORPUSCULAR HEMOGLOBIN [3]: 23.7 pg
- MEAN CORPUSCULAR HEMOGLOBIN CONCENTRATION [3]: 36.83 G/DL
- MEAN CORPUSCULAR VOLUME [3]: 64.37 fL
- MONOCYTE [3]: 3%
- NEUTROPHIL [3]: 11%
- NUCLEATED RED BLOOD CELLS [3]: 0 /100WBC
- PLATELET COUNT [3]: 1425 x10E3/uL
- ALANINE AMINOTRANSFERASE [3]: 42.67 u/L
- ALBUMIN [3]: 4.57 G/DL
- ALKALINE PHOSPHATASE [3]: 364.67 u/L
- ASPARTATE AMINOTRANSFERASE [3]: 84.33 u/L
- BLOOD UREA NITROGEN [3]: 18.67 mg/dL
- CARBON DIOXIDE [3]: 27.67 mmol/L
- CHOLESTEROL [3]: 76.67 mg/dL
- CREATINE PHOSPHOKINASE [3]: 325 u/L
- CREATININE [3]: 0.23 mg/dL
- GLUCOSE [3]: 145 mg/dL
- LACTATE DEHYDROGENASE [3]: 461.33 u/L
- LIPASE [3]: 9 u/L
- PHOSPHORUS [3]: 11.17 mg/dL
- POTASSIUM [3]: 6.1 MEQ/L
- SODIUM [3]: 143.03 MEQ/L
- TOTAL BILIRUBIN [3]: 0.23 mg/dL
- TOTAL PROTEIN [3]: 6.3 G/DL
- URIC ACID [3]: 1.33 mg/dL
